Common to all, as to assay type: in vivo
Test [1] concerns Mature C57B1/6J female mice. Description: Stimulation of ovulation in PMSG-primed mice (corpora haemorrhagica on the ovaries). The procedure:
Mature C57B1/6J female mice were treated in the following fashion: On day 0 all mice received a subcutaneous (s.'c) superovulating dose of pregnant mare serum gonadotraphin (PMSG) to stimulate the growth of ovarian follicles. After 48 hours mice received various doses of LHRH, Lys-6-LHRH or saline. On day 3 mice were sacrificed and examined for ovulation. Ovulation was assessed by examining for the presence of corpora haemorrhagica on the ovaries using a stereoscopic microscope at […].

A further test has as its system S. typhimurium. Kind of test: Systemic S. typhimurium infection in mice: survival and clearance. The conditions noted are these: for Suvivors (day 10) Number / Suvivors (day 10) Percentage: total dose 1 mg as five doses 12 h apart from day 3, mice fed 1×10^6 S. typhimurium on day 0; for Elimination of systemic S. typhimurium infection / prevention of death (in words): 1 mg total dose.

Test [2] relates to C57B1/6J mice. Kind of test: Footpad assay for DTH (footpad swelling). The conditions noted are these: oral 50 μg priming dose, challenge with 10 μg immunizing antigen in right foot, swelling after 24 h. The procedure:
Feeding of these VB12-protein complexed was also capable of stimulating good cellular immunity (as measured by the footpad assay for DTH).
+ Footpad swelling was measured in mm using a microcaliper. All groups
received a 50 μg priming dose of antigen followed by challenge with 10
μg of the immunizing antigen in the right foot and 10 μg of
ovalbumen in the left footpad. Swelling was measured after 24 h.

The subject of test [3] is C57B1/6J mice. Description: Serum antibody response (ELISA titre) after oral feeding of antigen. As to conditions: two feedings of antigen (50 μg) on days 1 and 14, reciprocal of antiserum dilution giving ELISA reading 0.5, day 21, mean of 15 mice ±1 SD. The procedure:
Female C57B1/6J mice (18-22 g) were obtained from the Animal Resources Centre (Perth, Western Australia). All mice received conjugate preparations in 0.5 ml of 0.1M carbonate/bicarbonate buffer pH9.5 using a specially prepared feeding needle. Mice were fed on days 0 and 14. On day 21 the mice were bled from the orbital plexus. Antibody titres of serum were determined by ELISA using alkaline phosphatase conjugated anti-mouse serum.
The possible potential for VB12 deliver protein molecules, covalently linked to it, from the intestine to the circulation was investigated. The immune response generated to this complex was compared to that generated by the protein fed alone or together with VB12, or to the protein injected intramuscularly.
* The reciprocal of the antiserum dilution that gave an ELISA reading of
0.5 afer 45min. at 37° C. on day 21 after initial feeding. Each
value represents the mean of 15 mice ±1 standard deviation. Mice
received two feedings of antigen (50 μg) on days 1 and 14. On day 21
mice were bled from the retro orbital plaxus and the antibody titres
measured by ELISA as described previously (RussellJones et al., 1984).
Each protein molecule was substituted with an average of 5 VB12 groups.
On the technique in general: An ELISA detects its analyte on a solid surface through an enzyme-linked reagent.

Where only a bound is given, the exact number is not on record here.

“lutenizing hormone releasing hormone [LHRH]”: the “Number of mice ovulating” value in test [1] (Table 2, PMSG 4 IU day 0, 50 μg iv day 2) was 1/3; in test [1] (Table 2, PMSG 8 IU day 0, 50 μg iv day 2) it was 1/4; in test [1] (Table 3, PMSG 8 IU day 0, 50 μg/os day 2), 1/5; in test [1] (Table 4, PMSG 8 IU day 0, 6 μg/os day 2), 0/5; in test [1] (Table 4, PMSG 8 IU day 0, 12 μg/os day 2), 0/5; in test [1] (Table 4, PMSG 8 IU day 0, 25 μg/os day 2), 1/5. In test [1] (Table 4, PMSG 8 IU day 0, 50 μg/os day 2), the “Number of mice ovulating” value is recorded as 1/5.
For the substance vitamin B12 [VB12], in the test with S. typhimurium (oral), the “Suvivors (day 10) Number” value was determined as 0 and the “Suvivors (day 10) Percentage” value was 0%. In addition, the “Footpad Response (footpad swelling)” value in the test on C57B1/6J mice [2] came to 0 mm. Besides, the “Serum Antibody Response” value with C57B1/6J mice [3] was under 4.
Consider neomycin, for which the “Elimination of systemic S. typhimurium infection / prevention of death (in words)” value is given as “could be saved” in the test with S. typhimurium (i.m. injection) and “not able to eliminate systemic infection” in the test with S. typhimurium (oral). Moreover, the entries for the “Suvivors (day 10) Number” value in the test on S. typhimurium (i.m.) and in the test with S. typhimurium (oral) were 2 and 0, respectively. Besides, the “Suvivors (day 10) Percentage” value is recorded as 100% in the test with S. typhimurium (i.m.) and 0% in the test on S. typhimurium (oral).

The values are drawn from patent US5807832A, “Oral delivery of biologically active substances bound to vitamin B12” (Biotech Australia Pty Limited, priority 1988, dated 1998).
